Measured values published in patent publication US20260335293A1, “USE OF NOVEL COMPOUND FOR TREATING INTRACTABLE DISEASES” (YJ CERAPEUTICS INC., priority 2023, published 2026).

Tests used:
sedation = experiment: Sedation as side effect of the drug; assay type: in vivo, Sprague-Dawley rats; conditions: 100 mg/kg
mTOR pathway = mTOR pathway in SNI model, Western blot; assay type: in vivo, Sprague-Dawley rats; conditions: 4 weeks after nerve injury
Procedure: FIG. 5B is a diagram showing results of analyzing the expression of factors associated with a mTOR signaling pathway in an inflammation-inhibiting mechanism in an SNI animal model by Western blot.
(§1) To determine through which signaling pathway YJ102 inhibited a neuroinflammatory response, there was analyzed increased expression and activation of histone demethylase JMJD3 and expression changes of factors associated with JAK/STAT3 pathway, mTOR pathway, and TRPM7-mediated pathway, which were known as important regulatory mechanisms and epigenetic regulators mediating the neuroinflammatory response, in the tissues of the SNI animal model 4 weeks after nerve injury.

TRPM7 = TRPM7 expression in SNI model, Western blot; assay type: in vivo, Sprague-Dawley rats; conditions: 4 weeks after nerve injury
Procedure: FIG. 5C is a diagram showing results of analyzing the expression of TRMP7 in an SNI animal model by Western blot.
as §1

[1] = test system: urinary disturbances caused by spinal cord injury (bladder function); experiment: Urinary function (residual urine volume, UBFS, bladder size and weight) in SCI model; assay type: in vivo, Sprague-Dawley rats; conditions: 5 mg/kg i.p.
Procedure: To be used as a central nerve injury animal model, a traumatic spinal cord injury (SCI) model was prepared (FIG. 1A). Specifically, 230 to 250 g of male adult Sprague-Dawley rats were anesthetized by intraperitoneal injection of chloral hydrate (500 mg/kg), and then the back and neck regions were shaved, and the spinal cord under the back and neck regions was exposed without damaging the dura mater, and a laminectomy was performed at T9 to T10 levels. To stabilize the spine, the spinous processes of T8 and T11 were fixed, and the spine was damaged by free-falling a 10 g weight from a height of 25 mm using an NYU impactor onto the back surface of the exposed spinal cord and then the rats were left in a temperature and humidity-controlled chamber overnight while covering the muscles and skin. After surgery, the rats were subcutaneously injected with a supplement solution (5 ml, lactated ringer) and injected with antibiotics (gentamicin, 5 mg/kg, intramuscular injection) once daily for 5 days. The body weight, remaining food, and the weight of water were confirmed and recorded for all animals, and the bladder was emptied twice daily by passive bladder massage until reflex micturition was established. At this time, a Sham group was a group that was subjected to only laminectomy without damage.
In order to confirm the effect of YJ102 (Chemical Formula 1), a compound of the present disclosure, on urinary disturbances caused by spinal cord injury, immediately after preparing the traumatic spinal cord injury (SCI) model (FIG. 1A) prepared in Example 1 above, YJ102 was dissolved in DMSO, methyl pyrrolidinone, and water (1:1.5:1) and administered intraperitoneally at 5 mg/kg, and then intraperitoneally administered at 24-hour intervals for 7 days from the next day. Thereafter, the effect of improving bladder functions was analyzed through a residual urine volume test and a urinary bladder function score (UBFS). […] Specifically, in order to determine the amount of urine remaining in the bladder after spinal cord injury, bladder extrusion was performed twice a day by applying pressure to the central bottom portion of the lower abdomen using the index and middle fingers to empty the bladder, and the expelled urine was collected in a catheter and its volume was recorded. In addition, the UBFS was assessed daily using a 0-4 point UBFS (0=total loss of function (manual bladder extrusion 3 times a day, bloody urine), 1=partial restoration of UBF (manual extrusion 2 times a day, bloody urine), 2=partial restoration of UBF (partial/complete release of sphincter spasm, manual extrusion once a day, persistently bloody urine), 3=high restoration (manual extrusion once a day, no bloody urine), and 4=normal UBF) as in the reference (Zeng et al., Spinal Cord (2017) 55:834-839).

[2] = test system: collagen in bladder muscle; experiment: Collagen content in bladder muscle (Masson's trichrome) in SCI model; assay type: in vivo, Sprague-Dawley rats; conditions: 5 mg/kg i.p., day 1 after SCI, vs normal group
MPO-positive neutrophils = experiment: Introduction of neutrophils (MPO) into bladder of SCI model, immunofluorescence; assay type: in vivo, Sprague-Dawley rats; conditions: day 1 after SCI
[3] = test system: ED-1-positive macrophages; experiment: Introduction of macrophages (ED-1) into bladder of SCI model, immunofluorescence; assay type: in vivo, Sprague-Dawley rats; conditions: day 7 after SCI
caspase-3 = experiment: Caspase-3 activation (cleaved caspase-3) in urothelium of SCI model, Western blot; assay type: in vivo, Sprague-Dawley rats; conditions: day 3 after SCI
UPIII = experiment: Urothelial marker UPIII in SCI model, Western blot; assay type: in vivo, Sprague-Dawley rats; conditions: day 3 after SCI
[4] = test system: proNGF in Raw 264.7 macrophage cell line; experiment: proNGF expression in LPS-stimulated Raw 264.7 macrophage cell line; assay type: cell-based; conditions: LPS 1 μg/ml; YJ102 30 minutes before LPS
Procedure: In order to determine whether YJ102 affected the production of proNGF as a ligand of p75, the expression of proNGF in the bladder was confirmed by RT-PCR, Western blot analysis, and immunofluorescence staining. In addition, for further verification, a macrophage cell line Raw 264.7 (Korea Cell Line Bank, Seoul, Korea) was stimulated with 1 μg/ml of LPS, and the effect of YJ102 on the production of proNGF was investigated. At this time, YJ102 was dissolved in DMSO and treated 30 minutes before LPS treatment.

[5] = test system: psoriasis (IMQ psoriasis animal model); experiment: Erythema and scaling (PASI) in IMQ psoriasis model; assay type: in vivo, C57BL/6 mouse
Procedure: Psoriasis caused by excessive production of skin cells was a chronic skin disease associated with various factors, including autoimmune diseases, and its symptoms included red and thickened skin and abnormally occurring scaling. […] Specifically, the back region of a C57BL/6 mouse (male, 18 to 20 g, 8 weeks) (Daehan Biolink, Eumseong, Korea) was shaved to remove hair, and then applied with IMQ cream (83 mg/day) (5%) for consecutive 5 days from Day 0 to Day 4 to induce psoriasis-like skin inflammation, and a normal control mouse (Sham) was applied with Vaseline cream (FIG. 16A).
In order to confirm the effect of YJ102 (Chemical Formula 1), a compound of the present disclosure, on psoriasis, YJ102 dissolved in DMSO, methyl pyrrolidinone, and water (1:1.5:1) was administered intraperitoneally (5 mg/kg) for a total of 3 days on Day 2, Day 3, and Day 4, and the Vehicle group was administered in the same amount of a solution of DMSO, methyl pyrrolidinone, and water (1:1.5:1) (FIG. 16A). To assess daily skin changes, PASI scores were used for erythema and scaling. The PASI score was evaluated as a severity scale of 0 to 4, in which 0 meant none, 1 meant mild, 2 meant moderate, 3 meant severe, and 4 meant very severe. (PASI Reference: Yashpal Manchanda, Abhishek De, Sudip Das, and Disha Chakraborty. Disease Assessment in Psoriasis. Indian J Dermatol. 2023 May-June; 68 (3): 278-281.)

[6] = 5 mg/kg i.p. Days 2-4, vs Vehicle

## CCc1ccc(N(C(=O)COC)c2nc3cc(Cl)ccc3o2)cc1 [YJ102]
sedation
  sedation: sedation was not observed
mTOR pathway
  activity of S6: inhibiting the activity
  activity of p70S6kinase: inhibiting the activity
TRPM7
  expression of TRPM7: inhibited the expression
[1]
  bladder size: significantly reduced
  bladder weight: significantly reduced
[1]; vs Veh, from the first day of administration
  residual urine volume: significantly reduced
[1]; vs Vehicle, day 3 and day 7 after SCI
  bladder function restoration analysis using the UBFS (printed as residual urine volume): significantly increased
[2]
  collagen content in the bladder muscle: maintained at a level almost similar to that of the normal group
MPO-positive neutrophils
  introduction of MPO-positive neutrophils into the bladder: significantly inhibited
[3]
  introduction of ED-1-positive macrophages into the bladder: significantly inhibited
caspase-3
  caspase-3 activation: inhibited
UPIII
  reduction in level of UPIII (urothelial loss): inhibited
[4]
  mRNA expression of proNGF: significantly inhibited
  protein expression of proNGF: significantly inhibited
[5]; 5 mg/kg i.p. Days 2-4, Day 6
  symptoms (erythema and scaling) on Day 6: appeared to be alleviated
[5]; [6]
  degree of erythema (PASI): significantly lower than that of the Vehicle group
  degree of scaling (PASI): significantly lower than that of the Vehicle group
